In patent publication US20180071354A1, “SELECTIVE BREEDING METHOD OF ANTITUMOR/ANTICANCER CAMELLIA SINENSIS STRAIN, AND TEA PRODUCT OF SUCH STRAIN” (FUJIAN AGRICULTURE AND FORESTRY UNIVERSITY, priority 2015, published 2018):
Values after ≈ are worked out from the molar mass of the structure shown. Read-outs that look alike come from different tables or passages of the source.

Assays:
Format in all cases: cell-based
[1] = test system: human colon cancer cell line HCT-116; experiment: In vitro antitumor/anticancer testing (CCK-8), HCT-116; conditions: 48 h
Description: (§1) Each of Tea Product 1 and Conventional Tea Product obtained in section A of this example was used to prepare test tea samples according to the method described below. A proper amount of the respective tea product was added into sterile water to prepare a stock solution with a concentration of 100 mg/mL, followed by using a membrane filter with a pore size of 0.22 μm to conduct vacuum filtration and sterilization. The resulting stock solution was diluted with a respective complete medium shown in Table 3 below to form test tea samples with different concentrations. In other words, the thus obtained test tea samples to be used for treating a respective cancer/tumor cell line shown in Table 3 were prepared using the same complete medium as that for the respective cancer/tumor cell line. […] Specifically, each of the aforesaid commercially available agents was subjected to the method described below to prepare comparative test samples. A proper amount of a respective commercially available agent was dissolved in phosphate-buffered saline (PBS) to prepare a stock solution with a concentration of 5 mg/mL, followed by using a membrane filter with a pore size of 0.22 μm to conduct vacuum filtration and sterilization. The resulting stock solution was diluted with a respective complete medium shown in Table 3 below to form comparative test samples with different concentrations. To be specific, the comparative test samples prepared from the respective commercially available agent have the concentrations shown in Table 2 below. The thus obtained comparative test samples to be used for treating a respective cancer/tumor cell line shown in Table 3 were prepared using the same complete medium as that for the respective cancer/tumor cell line. […] The cultivation of each cancer/tumor cell line is described as follows. […] Afterwards, a cell suspension having a cell density of 1.0×10^4 cells/mL was prepared. […] As experimental groups, the tumor/cancer cells of each cell line were treated with the test tea samples prepared from one or more of the tea products and the comparative test samples prepared from one or more of the commercially available agents as obtained in section B of this example (for more detailed information about the tea product(s) and the commercially available product (s) used to treat each cell line, please see Table 4 below). To be specific, 6 to 10 test tea samples prepared from the same tea product and having different concentrations, as well as 6 to 10 comparative test samples prepared from the same commercially available agent and having different concentrations, were utilized to treat the tumor/cancer cells of each cell line. For each experimental group, 6 repetitions of tumor/cancer treatment were performed. For the control group, 100 μL of PBS was added to a well containing the medium and the cancer/tumor cells of the respective cell line. For the blank group, 100 μL of PBS was added to a well containing a complete medium the same as that used for cultivation of the cancer/tumor cells of the respective cell line. After the treatment described above, cultivation was conducted in an incubator (37° C., 100% relative humidity, 5% CO2) for 48 hours. Subsequently, the liquid containing the medium and the sample in the well was removed, and a respective complete medium (shown in Table 3 above) containing 10% CCK-8 (Cell Counting Kit-8)(Dojindo Molecular Technologies, Inc., Cat. No. CK04-13) was added. Cultivation was performed in an incubator (37° C.) for 2 to 4 hours, followed by gently shaking.

[2] = test system: human squamous cell carcinoma cell line A431; experiment: In vitro antitumor/anticancer testing (CCK-8), A431; conditions: 48 h; for IC50: A431
Description: as §1

[3] = test system: human gastric cancer cell line SMMC-7721; experiment: In vitro antitumor/anticancer testing (CCK-8), SMMC-7721; conditions: 48 h
Description: as §1

[4] = test system: human gastric cancer cell line BGC-823; experiment: In vitro antitumor/anticancer testing (CCK-8), BGC-823; conditions: 48 h
Description: as §1

[5] = test system: human glioblastoma cell line U-87MG; experiment: In vitro antitumor/anticancer testing (CCK-8), U-87MG; conditions: 48 h
Description: as §1

Work on `O=C(O[C@@H]1Cc2c(O)cc(O)cc2O[C@@H]1c1cc(O)c(O)c(O)c1)c1cc(O)c(O)c(O)c1` [EGCG monomer, epigallocatechin gallate] yielded a Percent growth inhibition ([1]; 2.5 μg/mL) of 10.74%, a Percent growth inhibition ([1]; 5 μg/mL) of −7.91% and a Percent growth inhibition ([1]; 10 μg/mL) of −4.12%. The Percent growth inhibition ([1]; 20 μg/mL) was −1.58%, the Percent growth inhibition ([1]; 40 μg/mL) was 34.52% and the Percent growth inhibition ([1]; 80 μg/mL) was 66.98%. For the same compound, the IC50 ([1]; HCT-116) was “IC50 (μg/mL) = 55.72”, the Percent growth inhibition ([2]; 0.3125 μg/mL) was 7.79% and the Percent growth inhibition ([2]; 0.625 μg/mL) was 13.31%. For the same compound, the Percent growth inhibition ([2]; 1.25 μg/mL) was 10.00%, the Percent growth inhibition ([2]; 2.5 μg/mL) was 12.70% and the Percent growth inhibition ([2]; 5 μg/mL) was 19.18%. For the same compound, the Percent growth inhibition ([2]; 10 μg/mL) was 24.03%, the Percent growth inhibition ([2]; 20 μg/mL) was 34.07% and the Percent growth inhibition ([2]; 40 μg/mL) was 55.14%. The Percent growth inhibition ([2]; 80 μg/mL) was 30.13%, the IC50 [2] was “IC50 (μg/mL) = 29.51” and the Percent growth inhibition ([3]; 2.5 μg/mL) was 4.93%. It also gave a Percent growth inhibition ([3]; 5 μg/mL) of 3.31%, a Percent growth inhibition ([3]; 10 μg/mL) of 3.45% and a Percent growth inhibition ([3]; 20 μg/mL) of 1.33%. The Percent growth inhibition ([3]; 40 μg/mL) was 6.33%, the Percent growth inhibition ([3]; 80 μg/mL) was 40.85% and the Percent growth inhibition ([3]; 160 μg/mL) was 92.58%. It also gave a Percent growth inhibition ([3]; 320 μg/mL) of 98.50%, a Percent growth inhibition ([3]; 640 μg/mL) of 97.44% and a Percent growth inhibition ([4]; 2.5 μg/mL) of −0.82%. For the same compound, the Percent growth inhibition ([4]; 5 μg/mL) was −1.06%, the Percent growth inhibition ([4]; 10 μg/mL) was −0.64% and the Percent growth inhibition ([4]; 20 μg/mL) was 6.47%. The Percent growth inhibition ([4]; 40 μg/mL) was 28.02%, the Percent growth inhibition ([4]; 80 μg/mL) was 60.53% and the Percent growth inhibition ([4]; 160 μg/mL) was 97.87%. The Percent growth inhibition ([4]; 320 μg/mL) was 98.16%, the Percent growth inhibition ([4]; 640 μg/mL) was 97.03% and the IC50 ([4]; BGC-823) was “IC50 (μg/mL) = 62.94”. It also gave a Percent growth inhibition ([5]; 2.5 μg/mL) of 2.29%, a Percent growth inhibition ([5]; 5 μg/mL) of 2.94% and a Percent growth inhibition ([5]; 10 μg/mL) of 5.82%. The Percent growth inhibition ([5]; 20 μg/mL) was 15.72%, the Percent growth inhibition ([5]; 40 μg/mL) was 15.15% and the Percent growth inhibition ([5]; 80 μg/mL) was 2.45%. The Percent growth inhibition ([5]; 160 μg/mL) was 82.81%, the Percent growth inhibition ([5]; 320 μg/mL) was 98.43% and the Percent growth inhibition ([5]; 640 μg/mL) was 98.03%. For the same compound, the IC50 ([5]; U-87MG) was “IC50 (μg/mL) = 76.85”.

For `O=c1[nH]cc(F)c(=O)[nH]1` [5-fluorouracil], the inhibition at 0.3125 µg/mL ([1]; Homo sapiens, HCT-116, 0.3125 μg/mL, read-out: Percent growth inhibition) was 70.1%, the inhibition at 0.625 µg/mL ([1]; Homo sapiens, HCT-116, 0.625 μg/mL, read-out: Percent growth inhibition) was 32.4% and the inhibition at 1.25 µg/mL ([1]; Homo sapiens, HCT-116, 1.25 μg/mL, read-out: Percent growth inhibition) was 36.4%. For the same compound, the inhibition at 2.5 µg/mL ([1]; Homo sapiens, HCT-116, 2.5 μg/mL, read-out: Percent growth inhibition) was 88.5%, the inhibition at 5 µg/mL ([1]; Homo sapiens, HCT-116, 5 μg/mL, read-out: Percent growth inhibition) was 89.9% and the inhibition at 10 µg/mL ([1]; Homo sapiens, HCT-116, 10 μg/mL, read-out: Percent growth inhibition) was 91.9%. The inhibition at 20 µg/mL ([1]; Homo sapiens, HCT-116, 20 μg/mL, read-out: Percent growth inhibition) was 95.8%, the inhibition at 40 µg/mL ([1]; Homo sapiens, HCT-116, 40 μg/mL, read-out: Percent growth inhibition) was 97.9% and the inhibition at 80 µg/mL ([1]; Homo sapiens, HCT-116, 80 μg/mL, read-out: Percent growth inhibition) was 99.5%. It also gave an IC50 ([1]; Homo sapiens, HCT-116, read-out: IC50) of 0.0493 µg/mL (≈ 0.379 µM), an inhibition at 0.3125 µg/mL ([2]; Homo sapiens, A-431, 0.3125 μg/mL, read-out: Percent growth inhibition) of 82.4% and an inhibition at 0.625 µg/mL ([2]; Homo sapiens, A-431, 0.625 μg/mL, read-out: Percent growth inhibition) of 83.5%. It also gave an inhibition at 1.25 µg/mL ([2]; Homo sapiens, A-431, 1.25 μg/mL, read-out: Percent growth inhibition) of 83.1%, an inhibition at 2.5 µg/mL ([2]; Homo sapiens, A-431, 2.5 μg/mL, read-out: Percent growth inhibition) of 83% and an inhibition at 5 µg/mL ([2]; Homo sapiens, A-431, 5 μg/mL, read-out: Percent growth inhibition) of 84.4%. The inhibition at 10 µg/mL ([2]; Homo sapiens, A-431, 10 μg/mL, read-out: Percent growth inhibition) was 33.7%, the inhibition at 20 µg/mL ([2]; Homo sapiens, A-431, 20 μg/mL, read-out: Percent growth inhibition) was 96.3% and the inhibition at 40 µg/mL ([2]; Homo sapiens, A-431, 40 μg/mL, read-out: Percent growth inhibition) was 98.2%. It also gave an inhibition at 80 µg/mL ([2]; Homo sapiens, A-431, 80 μg/mL, read-out: Percent growth inhibition) of 98.8%, an IC50 ([2]; Homo sapiens, A-431, read-out: IC50) of 0.272 µg/mL (≈ 2.09 µM) and an inhibition at 0.3125 µg/mL ([3]; Homo sapiens, SMMC-7721, 0.3125 μg/mL, read-out: Percent growth inhibition) of 28.6%. It also gave an inhibition at 0.625 µg/mL ([3]; Homo sapiens, SMMC-7721, 0.625 μg/mL, read-out: Percent growth inhibition) of 62.4%, an inhibition at 1.25 µg/mL ([3]; Homo sapiens, SMMC-7721, 1.25 μg/mL, read-out: Percent growth inhibition) of 81% and an inhibition at 2.5 µg/mL ([3]; Homo sapiens, SMMC-7721, 2.5 μg/mL, read-out: Percent growth inhibition) of 82.7%. The inhibition at 5 µg/mL ([3]; Homo sapiens, SMMC-7721, 5 μg/mL, read-out: Percent growth inhibition) was 84.3%, the inhibition at 10 µg/mL ([3]; Homo sapiens, SMMC-7721, 10 μg/mL, read-out: Percent growth inhibition) was 81.6% and the inhibition at 20 µg/mL ([3]; Homo sapiens, SMMC-7721, 20 μg/mL, read-out: Percent growth inhibition) was 79.1%. For the same compound, the inhibition at 40 µg/mL ([3]; Homo sapiens, SMMC-7721, 40 μg/mL, read-out: Percent growth inhibition) was 80.2%, the inhibition at 80 µg/mL ([3]; Homo sapiens, SMMC-7721, 80 μg/mL, read-out: Percent growth inhibition) was 91% and the IC50 ([3]; Homo sapiens, SMMC-7721) was 0.383 µg/mL (≈ 2.94 µM). The inhibition at 0.3125 µg/mL ([4]; Homo sapiens, BGC-823, 0.3125 μg/mL, read-out: Percent growth inhibition) was -5.82%, the inhibition at 0.625 µg/mL ([4]; Homo sapiens, BGC-823, 0.625 μg/mL, read-out: Percent growth inhibition) was -4.99% and the inhibition at 1.25 µg/mL ([4]; Homo sapiens, BGC-823, 1.25 μg/mL, read-out: Percent growth inhibition) was -1.41%. It also gave an inhibition at 2.5 µg/mL ([4]; Homo sapiens, BGC-823, 2.5 μg/mL, read-out: Percent growth inhibition) of 0.92%, an inhibition at 5 µg/mL ([4]; Homo sapiens, BGC-823, 5 μg/mL, read-out: Percent growth inhibition) of 11.6% and an inhibition at 10 µg/mL ([4]; Homo sapiens, BGC-823, 10 μg/mL, read-out: Percent growth inhibition) of 23.9%. It also gave an inhibition at 20 µg/mL ([4]; Homo sapiens, BGC-823, 20 μg/mL, read-out: Percent growth inhibition) of 40.9%, an inhibition at 40 µg/mL ([4]; Homo sapiens, BGC-823, 40 μg/mL, read-out: Percent growth inhibition) of 52.7% and an inhibition at 80 µg/mL ([4]; Homo sapiens, BGC-823, 80 μg/mL, read-out: Percent growth inhibition) of 62.8%. It also gave an IC50 ([4]; Homo sapiens, BGC-823, read-out: IC50) of 2.55 µg/mL (≈ 19.6 µM).
